In brackets after ≈: the same amount, converted by molar mass.
Legend:
Enterococcus faecalis [1] = assay: Antibacterial activity against vancomycin-resistant Enterococcus faecalis BM 4390 after 18 to 24 hrs by microdilution assay; format: functional
[2] = target: T1, D-alanine--D-alanine ligase (Enterococcus faecalis (strain ATCC 700802 / V583), UniProt Q47758); assay: Inhibition of Enterococcus faecalis JH2-2 C-terminal 6His-tagged DdlB expressed in Escherichia coli LMG194 preincubated for 30 mins followed by substrate addition and measured after 20 mins by Biomol Green reagent assay
T1 sequence (Q47758 whole entry): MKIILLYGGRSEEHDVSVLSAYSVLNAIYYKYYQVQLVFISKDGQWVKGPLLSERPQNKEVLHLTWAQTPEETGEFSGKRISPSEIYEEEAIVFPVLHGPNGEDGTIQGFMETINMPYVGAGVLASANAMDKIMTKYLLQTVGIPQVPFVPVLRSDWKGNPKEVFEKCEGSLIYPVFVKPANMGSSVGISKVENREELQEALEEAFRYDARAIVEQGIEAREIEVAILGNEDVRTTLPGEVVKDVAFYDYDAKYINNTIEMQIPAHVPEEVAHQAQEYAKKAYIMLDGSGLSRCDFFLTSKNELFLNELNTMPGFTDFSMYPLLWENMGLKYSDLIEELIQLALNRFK

Staphylococcus aureus [3] = assay: Antibacterial activity against community-acquired methicillin and erythromycin resistant Staphylococcus aureus SA 325 after 18 to 24 hrs by microdilution assay; format: functional
Enterococcus faecalis [4] = assay: Antibacterial activity against vancomycin-resistant Enterococcus faecalis JH2-2::C1 after 18 to 24 hrs by microdilution assay; format: functional
Staphylococcus aureus [5] = assay: Antibacterial activity against Staphylococcus aureus ATCC 25923 after 18 to 24 hrs by microdilution assay; format: functional
Staphylococcus aureus [6] = assay: Antibacterial activity against methicillin and linezolid resistant Staphylococcus aureus NRS 119 clinical isolate after 18 to 24 hrs by microdilution assay; format: functional
Enterococcus faecalis [7] = assay: Antibacterial activity against vancomycin-resistant Enterococcus faecalis BM 4575 clinical isolate after 18 to 24 hrs by microdilution assay; format: functional
Staphylococcus aureus [8] = assay: Antibacterial activity against methicillin and vancomycin intermediate resistant Staphylococcus aureus MU50 after 18 to 24 hrs by microdilution assay; format: functional
Staphylococcus aureus [9] = assay: Antibacterial activity against hospital-acquired methicillin/ciprofloxacin/moxifloxacin resistant Staphylococcus aureus SA 481 after 18 to 24 hrs by microdilution assay; format: functional
Enterococcus faecalis [10] = assay: Antibacterial activity against Enterococcus faecalis ATCC 29212 after 18 to 24 hrs by microdilution assay; format: functional
Staphylococcus aureus [11] = assay: Antibacterial activity against hospital-acquired methicillin and vacomycin resistant Staphylococcus aureus VRS-1 after 18 to 24 hrs by microdilution assay; format: functional
[12] = target: Voltage-gated inwardly rectifying potassium channel KCNH2 (Homo sapiens, UniProt Q12809); assay: Displacement of [3H]-Dofetilide from recombinant human ERG after 60 mins by scintillation counting analysis
Sequence of Voltage-gated inwardly rectifying potassium channel KCNH2 (Q12809 whole entry): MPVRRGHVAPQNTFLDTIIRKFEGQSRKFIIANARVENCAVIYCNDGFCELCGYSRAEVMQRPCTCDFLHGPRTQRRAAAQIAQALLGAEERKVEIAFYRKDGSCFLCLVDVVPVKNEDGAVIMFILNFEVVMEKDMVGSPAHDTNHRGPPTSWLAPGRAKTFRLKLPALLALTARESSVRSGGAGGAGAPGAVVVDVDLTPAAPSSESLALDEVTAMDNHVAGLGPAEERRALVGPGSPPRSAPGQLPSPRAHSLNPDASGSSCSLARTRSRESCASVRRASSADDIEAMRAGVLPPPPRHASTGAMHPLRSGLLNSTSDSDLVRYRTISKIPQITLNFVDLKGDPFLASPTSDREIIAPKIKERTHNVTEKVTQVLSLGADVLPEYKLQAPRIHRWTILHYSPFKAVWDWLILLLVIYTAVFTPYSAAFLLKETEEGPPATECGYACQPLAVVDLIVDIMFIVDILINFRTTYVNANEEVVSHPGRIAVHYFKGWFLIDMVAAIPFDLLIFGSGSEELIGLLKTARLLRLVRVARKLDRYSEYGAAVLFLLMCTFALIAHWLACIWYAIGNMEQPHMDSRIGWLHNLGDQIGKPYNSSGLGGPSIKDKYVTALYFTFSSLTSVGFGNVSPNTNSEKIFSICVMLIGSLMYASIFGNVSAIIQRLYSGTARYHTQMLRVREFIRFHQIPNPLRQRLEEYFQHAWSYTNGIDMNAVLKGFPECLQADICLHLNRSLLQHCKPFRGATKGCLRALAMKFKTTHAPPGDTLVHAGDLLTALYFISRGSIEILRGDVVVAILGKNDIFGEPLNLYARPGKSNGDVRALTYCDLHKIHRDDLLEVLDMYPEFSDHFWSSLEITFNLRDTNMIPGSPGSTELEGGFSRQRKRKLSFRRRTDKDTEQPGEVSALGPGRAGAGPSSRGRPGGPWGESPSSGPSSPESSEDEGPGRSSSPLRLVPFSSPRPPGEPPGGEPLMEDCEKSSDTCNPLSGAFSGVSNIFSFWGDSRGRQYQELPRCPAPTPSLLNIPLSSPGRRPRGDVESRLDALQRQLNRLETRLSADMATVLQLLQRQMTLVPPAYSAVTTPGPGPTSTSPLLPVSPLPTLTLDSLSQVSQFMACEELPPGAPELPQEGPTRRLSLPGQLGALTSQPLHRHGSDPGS

[13] = Inhibition of Bacillus cereus beta-lactamase using nitrocefin as substrate preincubated for 15 mins followed by substrate addition and measured after 60 mins by spectrophotometric analysis
hERG (KCNH2) = hERG (KCNH2) (Homo sapiens, UniProt Q12809); assay: Displacement of [3H]-Dofetilide from recombinant human ERG at 10 uM after 60 mins by scintillation counting analysis relative to control; settings: probe [3H]-dofetilide
Sequence of hERG (KCNH2) (Q12809 whole entry): as above

[14] = target: T2, MAO-A (amine oxidase [flavin-containing] A) (Homo sapiens, UniProt P21397); assay: Inhibition of human MAOA at 10 uM using kynuramine as substrate after 20 mins by spectrophotometric analysis relative to control; settings: probe kynuramine
T2 sequence (P21397 whole entry): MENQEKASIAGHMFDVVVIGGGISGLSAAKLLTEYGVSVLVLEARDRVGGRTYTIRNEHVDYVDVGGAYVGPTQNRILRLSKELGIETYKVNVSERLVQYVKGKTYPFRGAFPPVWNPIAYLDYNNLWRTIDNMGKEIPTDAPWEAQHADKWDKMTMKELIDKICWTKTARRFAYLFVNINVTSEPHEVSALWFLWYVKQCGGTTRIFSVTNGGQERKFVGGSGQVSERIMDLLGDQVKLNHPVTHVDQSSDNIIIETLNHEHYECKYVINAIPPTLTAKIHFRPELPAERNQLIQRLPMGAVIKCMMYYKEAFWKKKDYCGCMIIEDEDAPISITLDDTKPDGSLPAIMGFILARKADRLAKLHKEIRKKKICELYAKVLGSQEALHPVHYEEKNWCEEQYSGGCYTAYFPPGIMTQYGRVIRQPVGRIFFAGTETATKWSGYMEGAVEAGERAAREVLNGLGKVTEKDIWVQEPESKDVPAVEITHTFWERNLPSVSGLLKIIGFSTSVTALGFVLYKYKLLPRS

THP-1 = assay: Cytotoxicity against human THP1 cells assessed as decrease in cell viability at 1 to 5 times MIC after 24 hrs by trypan blue exclusion assay relative to control; format: cell-based; settings: thp-1, 24 h
Staphylococcus aureus [15] = assay: Bactericidal activity against Staphylococcus aureus ATCC 25923 assessed as bacterial cell killing level at 0.1 mM after 24 hrs by time kill assay; format: functional
[16] = target: Secretory phospholipase A2; assay: Inhibition of human sPLA2; format: protein assay
[17] = target: T1, D-alanine--D-alanine ligase; assay: Inhibition of Enterococcus faecalis Ddl
[18] = Inhibition of 6His-tagged Staphylococcus aureus Ddl expressed in Escherichia coli M15 (pREP4) using ATP or d-alanine as substrate after 20 mins
[19] = test system: Mycobacterium tuberculosis; assay: Antitubercular activity against Mycobacterium tuberculosis H37Rv; format: functional
[20] = Inhibition of full-length 6His-tagged Mycobacterium tuberculosis H37Rv Ddl expressed in Escherichia coli BL21(DE3)pLysS by UV-Vis spectrophotometric analysis

SMILES	MIC (Enterococcus faecalis [1])	IC50 [2]	MIC (Staphylococcus aureus [3])	MIC (Enterococcus faecalis [4])	MIC (Staphylococcus aureus [5])	MIC (Staphylococcus aureus [6])	MIC (Enterococcus faecalis [7])	MIC (Staphylococcus aureus [8])	MIC (Staphylococcus aureus [9])	MIC (Enterococcus faecalis [10])	MIC (Staphylococcus aureus [11])	also measured
O=C(NNC(=S)Nc1ccc(Cl)c(Cl)c1)c1cc2ccccc2cc1O	> 100 µM	560 nM	> 100 µM	> 100 µM	> 100 µM	> 100 µM	> 100 µM	> 100 µM	> 100 µM	> 400 µM	> 100 µM	
O=C(NNC(=S)Nc1ccc(Cl)c(Cl)c1)c1ccccc1O	50 µM (≈ 17.8 µg/mL)	1540 nM	50 µM (≈ 17.8 µg/mL)	100 µM (≈ 35.6 µg/mL)	100 µM (≈ 35.6 µg/mL)	50 µM (≈ 17.8 µg/mL)	50 µM (≈ 17.8 µg/mL)	100 µM (≈ 35.6 µg/mL)	100 µM (≈ 35.6 µg/mL)	50 µM (≈ 17.8 µg/mL)	50 µM (≈ 17.8 µg/mL)	IC50 [12]: 80 nM; IC50 [13]: 11 nM; inhibition at 1 h, 10 µM (hERG (KCNH2)): ≤ 30%; inhibition at 20 min, 10 µM [14]: ≤ 30%; Activity (THP-1): 12 to 25%; Activity (Staphylococcus aureus [15]): 99%; IC50 [16]: 20000 nM
CCOC(=O)c1cc(Br)c2nc(-c3cccc(CN)c3)oc2c1												IC50 [17]: 432000 nM
CC(C)(CCl)C(=O)Nc1ccc(C(F)(F)F)cc1												Ki [18]: 4000 nM
N[C@@H]1CONC1=O [CYCLOSERINE]					313 µM (≈ 32 µg/mL)					1250 µM (≈ 128 µg/mL)		MIC [19]: 50 µg/mL (≈ 490 µM); Ki [20]: 25000 nM

Reference: ChEMBL document CHEMBL4382202, “1-(2-Hydroxybenzoyl)-thiosemicarbazides are promising antimicrobial agents targeting d-alanine-d-alanine ligase in bacterio” (Eur J Med Chem, 2018)
